{"source": "patent US7371413B2", "about": "“Antioxidant and anti-inflammatory activity of compounds and preparations from African nutmeg seeds” (Rutgers, The State University, priority 2003, dated 2008)", "key": {"[1]": {"system": "COX-2 mRNA expression in LPS-induced RAW 264.7 mouse macrophage cells", "assay": "Inhibition of LPS-induced COX-2 mRNA expression (RT-PCR)", "type": "cell-based", "conditions": "for inhibition of COX-2 mRNA expression: 12 hrs; for inhibition of COX-2 mRNA expression (in words): within the concentration ranges assayed", "description": "(§1) Total RNA was isolated using Tri-reagent (Sigma, MO, USA) and 5 μg of this RNA was reverse transcribed to make cDNA using random hexamers and Superscript™ reverse transcriptase (Invitrogen, CA, USA) according to the manufacturer's instructions. The linear range of amplification of iNOS and COX-2 cDNA was determined using gene specific primers from Ambion, Inc. (TX, USA) according to the manufacturer's instructions. Briefly, the optimum amount of 18S primer and competitor for iNOS and COX-2 genes were determined. […] Finally, PCR products from each sample (10 μl) were resolved by electrophoresis in a 2% agarose gel (Fisher Biotech, NJ, USA) and stained with ethidium bromide. An image of the gel was captured after the appropriate exposure time and densitometric analysis was performed using image analysis software (Scion, NIH). For relative quantification, 18S ribosomal RNA was also amplified in same reaction as an internal control. Quantitative analysis of the expression of iNOS and COX-2 mRNA was performed by taking the ratio of the integrated density of each band to that of the 18S RNA band in the same sample."}, "[2]": {"system": "TPA-induced mouse ear edema", "conditions": "compounds isolated from Roldana barba-johannis; compared with α-tocopherol; cited from earlier work"}, "[3]": {"system": "iNOS mRNA expression in LPS-induced RAW 264.7 mouse macrophage cells", "assay": "Inhibition of LPS-induced iNOS mRNA expression (RT-PCR)", "type": "cell-based", "conditions": "12 hrs", "description": "as §1"}, "[4]": {"conditions": "compared with α-tocopherol and indomethacin; cited from earlier work"}, "[5]": {"assay": "DPPH free radical scavenging assay", "type": "biochemical", "conditions": "DPPH 1.0×10^−4 M in ethanol, half an hour, 517 nm", "description": "Kombo butter, kombo butter acid extract, and purified sargaquinoic acid (KB-1), sargachromenol (KB-2), and sargahydroquinoic acid (KB-3) were tested for antioxidant activity by both the 2,2′-diphenylpicrylydrazyl (DPPH) and the 2,2′-azinobis-(3-ethylbenzothiazoline-6-sulfonic acid) (ABTS) free radical scavenging assays. A solution of DPPH in ethanol was prepared at a final concentration of 1.0×10^−4 M. Each of the potential actives under investigation was added to the DPPH solution at a number of different concentrations. The solutions were mixed, shaken vigorously and kept in the dark for half an hour. The absorbance of the samples was then measured at 517 nm with an HP Model 8453 spectrophotometer using a blank of ethanol without DPPH. All tests were run in triplicate and averaged. Differences among individual measurements were always less than 5% [26]."}, "[6]": {"assay": "ABTS free radical scavenging assay (TEAC)", "type": "biochemical", "conditions": "Trolox equivalent of a 1.0 mM solution", "description": "For the ABTS assay, a solution of ABTS in water was prepared at a final concentration of 7 mM. The ABTS radical cation (ABTS^.+) was produced by adding solid potassium persulfate to the ABTS solution sufficient to yield a final concentration of 2.45 mM potassium persulfate in the mixture and allowing the mixture to stand in the dark at room temperature for 12-16 hours before use. The ABTS^.+ solution was diluted with methanol to an absorbance of 0.70 at 734 nm. Stock solutions of each of the potential actives under investigation were diluted with ethanol to ensure 20-80% inhibition of the radical cation upon introduction of a 10 μL aliquot of the active solution to 1 ml of diluted ABTS^.+ solution. The absorbance was measured beginning exactly 1 min after initial mixing and thereafter up to 6 min. Trolox was used as the standard, and the activity of each of the potential actives was expressed as a Trolox Equivalent Antioxidant Capacity (TEAC) value. The TEAC value represents the millimolar concentration of a Trolox solution having an equivalent antioxidant capacity to a 1.0 mM solution of the potential active under investigation."}, "[7]": {"system": "COX-2 protein expression in LPS-induced RAW 264.7 cells", "assay": "Inhibition of LPS-induced COX-2 protein expression (Western blotting)", "type": "cell-based, mouse", "conditions": "treatment for 18 hrs, LPS 0.5 μg/mL", "excerpt": "(§2) To confirm whether the inhibition of NO production by kombo butter, kombo butter acid extract, and purified sargaquinoic acid (KB-1), sargachromenol (KB-2), and sargahydroquinoic acid (KB-3) was due to reduced enzymatic activity or protein expression of inducible nitric oxide synthase (iNOS), we investigated the effect of kombo butter and its constituents on iNOS protein expression by Western blotting. In addition to iNOS, we also studied the effect of kombo butter and its constituents on the expression of cyclooxygenase-2 (COX-2), an enzyme critical to the production of inflammatory prostaglandins and known to be activated in LPS-stimulated macrophages.\n(§3) RAW 264.7 mouse macrophage cells were cultured in Dulbecco's Modified Eagle Medium (DMEM) supplemented with 15% fetal bovine serum (FBS) and an antibiotic and antimycotic mixture. Cell suspensions of 50,000 cells/well were cultured in quadruplicate in flat bottom microtiter plates for 12 hrs. […]\n(§4) An equal amount of protein (40 μg) from each sample was resolved by SDS-polyacrylamide gel electrophoresis. […] Specific bands were detected using enhanced chemiluminescence's detection system (Amersham-Pharmacia Biotech, NJ, USA) and the membrane was exposed to X-ray film. […]"}, "[8]": {"system": "iNOS protein expression in LPS-induced RAW 264.7 cells", "assay": "Inhibition of LPS-induced iNOS protein expression (Western blotting)", "type": "cell-based, mouse", "conditions": "treatment for 18 hrs, LPS 0.5 μg/mL", "excerpt": "as §2, §3, §4"}, "[9]": {"conditions": "in vitro, compared with α-tocopherol; cited from earlier work"}}}
{"compound": "CC(C)=CCC/C(=C/CC/C(C)=C/CCC1(C)C=Cc2cc(O)cc(C)c2O1)C(=O)O", "note": "(centres unmarked) [Sargachromenol, sargachromenol]", "values": [{"measurement": "inhibition of COX-2 mRNA expression", "setting": "[1]; 50 μM", "value": 16, "unit": "%"}, {"measurement": "anti-inflammatory activity", "setting": "[2]", "value": "exceeded that of α-tocopherol"}, {"measurement": "inhibition of iNOS mRNA expression (in words)", "setting": "[3]; 50 μM", "value": "exhibited inhibitory activity"}, {"measurement": "antioxidant activity (DPPH radical scavenging)", "setting": "[4]", "value": "better than those of either α-tocopherol or indomethacin"}, {"measurement": "DPPH free radical scavenging IC50", "setting": "[5]", "value": 17.3, "unit": "µg/mL"}, {"measurement": "TEAC", "setting": "[6]", "value": 0.75, "unit": "mM"}, {"measurement": "inhibition of COX-2 protein expression", "setting": "[7]", "value": "markedly inhibited"}]}
{"compound": "CC(C)=CCC/C(=C/CC/C(C)=C/CC/C(C)=C/Cc1cc(O)cc(C)c1O)C(=O)O", "note": "[Sargahydroquinoic acid, sargahydroquinoic acid]", "values": [{"measurement": "inhibition of COX-2 mRNA expression", "setting": "[1]; 25 μM", "value": "~12", "unit": "%"}, {"measurement": "inhibition of COX-2 mRNA expression", "setting": "[1]; 50 μM", "value": "~19", "unit": "%"}, {"measurement": "inhibition of iNOS mRNA expression", "setting": "[3]; 25 μM", "value": 31, "unit": "%"}, {"measurement": "inhibition of iNOS mRNA expression", "setting": "[3]; 50 μM", "value": 74, "unit": "%"}]}
{"compound": "CC(C)=CCC/C(=C\\CC/C(C)=C/CC/C(C)=C/CC1=CC(=O)C=C(C)C1=O)C(=O)O", "note": "[Sargaquinoic acid, sargaquinoic acid]", "values": [{"measurement": "inhibition of iNOS mRNA expression (in words)", "setting": "[3]; 50 μM", "value": "exhibited inhibitory activity"}, {"measurement": "inhibition of iNOS protein expression", "setting": "[8]", "value": "markedly inhibited"}, {"measurement": "TEAC", "setting": "[6]", "value": 0.15, "unit": "mM"}]}
{"compound": "COc1ccc2c(c1)c(CC(=O)O)c(C)n2C(=O)c1ccc(Cl)cc1", "note": "[indomethacin, reference compound]", "values": [{"measurement": "inhibition of COX-2 mRNA expression (in words)", "setting": "[1]", "value": "neither of these compounds effected any inhibition"}]}
{"compound": "CC(=CCCC(C)=CCc1cc(O)cc(C)c1O)CCC=C(C)CCC=C(C)C(=O)O", "note": "[kombic acid]", "values": [{"measurement": "antioxidant activity with respect to lipid peroxidation", "setting": "[9]", "value": "either met or exceeded that of α-tocopherol"}]}
{"compound": "vitamin E [reference compound]", "values": [{"measurement": "inhibition of COX-2 mRNA expression (in words)", "setting": "[1]", "value": "neither of these compounds effected any inhibition"}]}
